Tests used:
Assay type in all cases: in vivo
[1] = test system: Echinochloa crus-galli var. formosensis; experiment: Test Example 2: herbicidal effect test by application during growth period of paddy rice; settings: Echinochloa crus-galli; 120 g per 10 ares; applied seven days after sowing, flooded pots; 14 days after application; read-out: weed inhibition rate
Outline: (§1)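 Flooded paddy pot test, greenhouse. Seeds 30/species, 0–1 cm depth, water ~3 cm. EC diluted in water, dropper-applied 7 d post-sowing at 120 g a.i./10 a. Inhibition rate (%) read 14 d after treatment; n=2.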

Monochoria vaginalis [2] = experiment: as above; settings: Pontederia vaginalis; 120 g per 10 ares; applied seven days after sowing, flooded pots; 14 days after application; read-out: weed inhibition rate
Outline: as §1

Scirpus juncoides [3] = experiment: as above; settings: Schoenoplectiella juncoides; 120 g per 10 ares; applied seven days after sowing, flooded pots; 14 days after application; read-out: weed inhibition rate
Outline: as §1

Digitaria ciliaris [4] = experiment: Test Example 4: herbicidal effect test by stem and leaf treatment in upland field; settings: Digitaria ciliaris; 120 g per 10 ares; sprayed seven days after sowing, upland soil; 14 days after application; read-out: weed inhibition rate
Echinochloa crus-galli [5] = experiment: as above; settings: Echinochloa crus-galli; 120 g per 10 ares; sprayed seven days after sowing, upland soil; 14 days after application; read-out: weed inhibition rate
[6] = test system: Echinochloa crus-galli var. formosensis; experiment: Test Example 5: herbicidal effect test by soil application in paddy rice (low dose); settings: Echinochloa crus-galli, soil, 336 h; 7.5 g per 10 ares; applied immediately after sowing, flooded pots; 14 days after application; read-out: weed inhibition rate
Outline: (§2)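 Pre-emergence paddy test: seeds sown 0–1 cm (30 each), pots flooded ~3 cm, greenhouse. EC dilution dropped into water right after sowing, 7.5 g a.i./10 a. Duplicate pots; weed inhibition rate (%) by formula, day 14.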

Monochoria vaginalis [7] = experiment: as above; settings: Pontederia vaginalis, 336 h, 7.5 g per 10 ares, applied immediately after sowing, flooded pots, 14 days after application, read-out: weed inhibition rate
Outline: as §2

Scirpus juncoides [8] = experiment: as above; settings: Schoenoplectiella juncoides, 336 h, 7.5 g per 10 ares, applied immediately after sowing, flooded pots, 14 days after application, read-out: weed inhibition rate
Outline: as §2

[9] = test system: Echinochloa crus-galli var. formosensis; experiment: Test Example 6: herbicidal effect test by application during growth period of paddy rice (low dose); settings: Echinochloa crus-galli; 7.5 g per 10 ares; applied seven days after sowing, flooded pots; 14 days after application; read-out: weed inhibition rate
Outline: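 Puddled, fertilised paddy soil was sown with 30 seeds per species and flooded to about 3 cm. After 7 days in a glass greenhouse, the diluted emulsifiable concentrate went into the water by dropper at 7.5 g/10 a. Effect scored at 14 days.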

Digitaria ciliaris [10] = experiment: Test Example 7: herbicidal effect test by soil application in upland field (low dose); settings: Digitaria ciliaris, 7.5 g per 10 ares, sprayed one day after sowing, 14 days after application, read-out: weed inhibition rate
Outline: (§3)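 Read-out: weed inhibition rate (%) at 14 d post-treatment, duplicate pots per concentration. Seeds sown in the top 1 cm of upland alluvial loam; emulsifiable concentrate diluted in water and sprayed on the soil surface 1 d after sowing at 7.5 g a.i./10 a (100 L/10 a spray volume).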

Echinochloa crus-galli [11] = experiment: as above; settings: Echinochloa crus-galli, 7.5 g per 10 ares, sprayed one day after sowing, 14 days after application, read-out: weed inhibition rate
Outline: as §3

CC(C)[C@]12C[C@@H](OCc3ccccc3F)[C@](C)(C[C@@H]1OCC1CC1)O2 [1-1603, (1S,2R,4R,5S)-5-(cyclopropylmethoxy)-2-[(2-fluorophenyl)methoxy]-1-methyl-4-isopropyl-7-oxabicyclo[2.2.1]heptane]
≥ 80%: inhibition at 1200 g/ha [1] | inhibition at 1200 g/ha (Monochoria vaginalis [2]) | inhibition at 1200 g/ha (Scirpus juncoides [3]) | inhibition at 1200 g/ha (Digitaria ciliaris [4]) | inhibition at 1200 g/ha (Echinochloa crus-galli [5]) | inhibition at 75 g/ha [6] | inhibition at 75 g/ha (Monochoria vaginalis [7]) | inhibition at 75 g/ha (Scirpus juncoides [8]) | inhibition at 75 g/ha [9] | inhibition at 75 g/ha (Digitaria ciliaris [10]) | inhibition at 75 g/ha (Echinochloa crus-galli [11])

Cc1ccccc1CO[C@@H]1C[C@]2(C(C)C)O[C@@]1(C)CC2=O [2-3, (1R,4S,5R)-1-isopropyl-4-methyl-5-((2-methylbenzyl)oxy)-7-oxabicyclo[2.2.1]heptan-2-one]
≥ 80%: inhibition at 1200 g/ha [1] | inhibition at 1200 g/ha (Monochoria vaginalis [2]) | inhibition at 1200 g/ha (Scirpus juncoides [3]) | inhibition at 1200 g/ha (Digitaria ciliaris [4]) | inhibition at 1200 g/ha (Echinochloa crus-galli [5]) | inhibition at 75 g/ha [6] | inhibition at 75 g/ha (Monochoria vaginalis [7]) | inhibition at 75 g/ha (Scirpus juncoides [8]) | inhibition at 75 g/ha [9] | inhibition at 75 g/ha (Digitaria ciliaris [10]) | inhibition at 75 g/ha (Echinochloa crus-galli [11])

CC(C)[C@]12C[C@@H](OCc3ccccc3F)[C@](C)(CC1=O)O2 [2-9, (1R,4S,5R)-5-((2-fluorobenzyl)oxy)-1-isopropyl-4-methyl-7-oxabicyclo[2.2.1]heptan-2-one]
≥ 80%: inhibition at 1200 g/ha [1] | inhibition at 1200 g/ha (Monochoria vaginalis [2]) | inhibition at 1200 g/ha (Scirpus juncoides [3]) | inhibition at 1200 g/ha (Digitaria ciliaris [4]) | inhibition at 1200 g/ha (Echinochloa crus-galli [5]) | inhibition at 75 g/ha [6] | inhibition at 75 g/ha (Monochoria vaginalis [7]) | inhibition at 75 g/ha (Scirpus juncoides [8]) | inhibition at 75 g/ha [9] | inhibition at 75 g/ha (Digitaria ciliaris [10]) | inhibition at 75 g/ha (Echinochloa crus-galli [11])

CC(C)[C@]12C[C@@H](OCc3ccccc3Br)[C@](C)(CC1=O)O2 [2-13, (1R,4S,5R)-5-((2-bromobenzyl)oxy)-1-isopropyl-4-methyl-7-oxabicyclo[2.2.1]heptan-2-one]
≥ 80%: inhibition at 1200 g/ha [1] | inhibition at 1200 g/ha (Monochoria vaginalis [2]) | inhibition at 1200 g/ha (Scirpus juncoides [3]) | inhibition at 1200 g/ha (Digitaria ciliaris [4]) | inhibition at 1200 g/ha (Echinochloa crus-galli [5]) | inhibition at 75 g/ha [6] | inhibition at 75 g/ha (Monochoria vaginalis [7]) | inhibition at 75 g/ha (Scirpus juncoides [8]) | inhibition at 75 g/ha [9] | inhibition at 75 g/ha (Digitaria ciliaris [10]) | inhibition at 75 g/ha (Echinochloa crus-galli [11])

CC(C)[C@]12C[C@@H](OCc3c(F)cccc3F)[C@](C)(CC1=O)O2 [2-20, (1R,4S,5R)-5-((2,6-difluorobenzyl)oxy)-1-isopropyl-4-methyl-7-oxabicyclo[2.2.1]heptan-2-one]
≥ 80%: inhibition at 1200 g/ha [1] | inhibition at 1200 g/ha (Monochoria vaginalis [2]) | inhibition at 1200 g/ha (Scirpus juncoides [3]) | inhibition at 1200 g/ha (Digitaria ciliaris [4]) | inhibition at 1200 g/ha (Echinochloa crus-galli [5]) | inhibition at 75 g/ha [6] | inhibition at 75 g/ha (Monochoria vaginalis [7]) | inhibition at 75 g/ha (Scirpus juncoides [8]) | inhibition at 75 g/ha [9] | inhibition at 75 g/ha (Digitaria ciliaris [10]) | inhibition at 75 g/ha (Echinochloa crus-galli [11])

CC(C)[C@]12C[C@@H](OCc3c(F)cccc3Cl)[C@](C)(CC1=O)O2 [2-28, (1R,4S,5R)-5-((2-chloro-6-fluorobenzyl)oxy)-1-isopropyl-4-methyl-7-oxabicyclo[2.2.1]heptan-2-one]
≥ 80%: inhibition at 1200 g/ha [1] | inhibition at 1200 g/ha (Monochoria vaginalis [2]) | inhibition at 1200 g/ha (Scirpus juncoides [3]) | inhibition at 1200 g/ha (Digitaria ciliaris [4]) | inhibition at 1200 g/ha (Echinochloa crus-galli [5]) | inhibition at 75 g/ha [6] | inhibition at 75 g/ha (Monochoria vaginalis [7]) | inhibition at 75 g/ha (Scirpus juncoides [8]) | inhibition at 75 g/ha [9] | inhibition at 75 g/ha (Digitaria ciliaris [10]) | inhibition at 75 g/ha (Echinochloa crus-galli [11])

C=C1C[C@]2(C)O[C@@]1(C(C)C)C[C@H]2OCc1ccccc1F [2-88, (1R,4S,5R)-5-((2-fluorobenzyl)oxy)-1-isopropyl-4-methyl-2-methylene-7-oxabicyclo[2.2.1]heptane]
≥ 80%: inhibition at 1200 g/ha [1] | inhibition at 1200 g/ha (Monochoria vaginalis [2]) | inhibition at 1200 g/ha (Scirpus juncoides [3]) | inhibition at 1200 g/ha (Digitaria ciliaris [4]) | inhibition at 1200 g/ha (Echinochloa crus-galli [5]) | inhibition at 75 g/ha [6] | inhibition at 75 g/ha (Monochoria vaginalis [7]) | inhibition at 75 g/ha (Scirpus juncoides [8]) | inhibition at 75 g/ha [9] | inhibition at 75 g/ha (Digitaria ciliaris [10]) | inhibition at 75 g/ha (Echinochloa crus-galli [11])

Cc1cccc(F)c1CO[C@@H]1C[C@]2(C(C)C)O[C@@]1(C)CC2=O [2-353, (1R,4S,5R)-5-((2-fluoro-6-methylbenzyl)oxy)-1-isopropyl-4-methyl-7-oxabicyclo[2.2.1]heptan-2-one]
≥ 80%: inhibition at 1200 g/ha [1] | inhibition at 1200 g/ha (Monochoria vaginalis [2]) | inhibition at 1200 g/ha (Scirpus juncoides [3]) | inhibition at 1200 g/ha (Digitaria ciliaris [4]) | inhibition at 1200 g/ha (Echinochloa crus-galli [5]) | inhibition at 75 g/ha [6] | inhibition at 75 g/ha (Monochoria vaginalis [7]) | inhibition at 75 g/ha (Scirpus juncoides [8]) | inhibition at 75 g/ha [9] | inhibition at 75 g/ha (Digitaria ciliaris [10]) | inhibition at 75 g/ha (Echinochloa crus-galli [11])

CC(C)[C@]12C[C@@H](OCc3c(F)cccc3Br)[C@](C)(CC1=O)O2 [2-355, (1R,4S,5R)-5-((2-bromo-6-fluorobenzyl)oxy)-1-isopropyl-4-methyl-7-oxabicyclo[2.2.1]heptan-2-one]
≥ 80%: inhibition at 1200 g/ha [1] | inhibition at 1200 g/ha (Monochoria vaginalis [2]) | inhibition at 1200 g/ha (Scirpus juncoides [3]) | inhibition at 1200 g/ha (Digitaria ciliaris [4]) | inhibition at 1200 g/ha (Echinochloa crus-galli [5]) | inhibition at 75 g/ha [6] | inhibition at 75 g/ha (Monochoria vaginalis [7]) | inhibition at 75 g/ha (Scirpus juncoides [8]) | inhibition at 75 g/ha [9] | inhibition at 75 g/ha (Digitaria ciliaris [10]) | inhibition at 75 g/ha (Echinochloa crus-galli [11])

CC(C)[C@]12C=C[C@](C)(O1)[C@H](OCc1ccccc1)C2 [3-1, (1R,4S,5R)-4-methyl-5-phenylmethoxy-1-isopropyl-7-oxabicyclo[2.2.1]hept-2-ene]
≥ 80%: inhibition at 1200 g/ha [1] | inhibition at 1200 g/ha (Monochoria vaginalis [2]) | inhibition at 1200 g/ha (Scirpus juncoides [3]) | inhibition at 1200 g/ha (Digitaria ciliaris [4]) | inhibition at 1200 g/ha (Echinochloa crus-galli [5]) | inhibition at 75 g/ha [6] | inhibition at 75 g/ha (Monochoria vaginalis [7]) | inhibition at 75 g/ha (Scirpus juncoides [8]) | inhibition at 75 g/ha [9] | inhibition at 75 g/ha (Digitaria ciliaris [10]) | inhibition at 75 g/ha (Echinochloa crus-galli [11])

Reference: EP4707280A1, “1,4-CINEOLE DERIVATIVE AND INTERMEDIATE THEREOF, HERBICIDE CONTAINING SAID DERIVATIVE AS ACTIVE INGREDIENT, METHOD FOR USING HERBICIDE, AND METHOD FOR PREPARING AGROCHEMICAL COMPOSITION” (HOKKO CHEMICAL INDUSTRY CO., LTD., priority 2023, dated 2024)
